In US11479546B2, “Antimalarial hexahydropyrimidine analogues” (UCB Biopharma SRL, priority 2018, dated 2022):
pIC50: −log10 of the molar value.

The compounds below were run on Plasmodium falciparum 3D7 (assay: P. falciparum 3D7 asexual blood stage assay, Assay Procedure Version 2 (SYBR green readout)). Conditions: Plasmodium falciparum, 3D7, Erythrocyte, 72 h, Version 2 of the assay procedure (asterisk *); 72 h incubation in infected erythrocytes; 50,000 nM to 15 nM.
Type: cell-based
Description: Asexual Blood Stage Assay
The assay used to measure the effect of test compounds on a bloodstream stage of Plasmodium falciparum 3D7 strain employs SYBR green as the readout. This is a dye that binds to double stranded deoxyribonucleic acid (DNA) with a resulting increase in fluorescence, allowing detection of P. falciparum DNA in infected erythrocytes, and thereby providing a measure of parasite growth and propagation.
P. falciparum Culture Maintenance
Erythrocytes (A+blood) were prepared for both parasite culture and assay by washing 4 times with incomplete media (15.9 g RPMI 1640 (25 mM HEPES, L-glutamine), 1 g NaHCO3, 2 g glucose, 400 μL gentacin (500 mg/mL), 2 mL hypoxanthine solution (13.6 g/L in 0.1M NaOH pH 7.3) in 1 litre of media). The cells were centrifuged at 1800 g for 5 minutes, before decanting the supernatant and re-suspending in fresh incomplete media. On the final wash, the cells were re-suspended in complete media (incomplete media with 5 g/L AlbumaxII), and centrifuged at 1800 g for 3 minutes. This cell sediment was treated as 100% haematocrit.
P. falciparum 3D7 was cultured in erythrocytes at 5% haematocrit in complete media at 37° C. (1% O2, 3% CO2, balance N2). Cultures were split on a weekly basis to achieve a 1% parasitaemia in erythrocites at 5% haematocrit in fresh media. Culture media is replaced by fresh media every other day (2 times during the week).
[formula] where A=% inhibition at bottom; B=% inhibition at top; C=EC50; D=slope; x=inhibitor concentration; and y=% inhibition. […] Assay Procedure—Version 2
On day 1, test compounds were added to assay plates using Echo dispensing technology ([…] and 20 points titration). 50 nL of each compound dilution was added to 50 μL of culture (5% haematocrit, 0.5% parasitaemia) and incubated for 72 h at 37° C. (1% O2, 3% CO2, balance N2). Final concentrations of test compounds ranged from 50,000 nM to 15 nM, in […].
On day 4, 10 μL SYBR green (Invitrogen S7563 supplied as 10,000× concentrate in DMSO) pre-diluted to 3× concentrate with Lysis buffer (20 mM Tris pH 7.9, 5% EDTA, 0.16% w/v, 1.6% TX100 v/v) was added to the cultures and incubated in the dark, overnight, at room temperature.
On day 5, fluorescent signal was measured using a BioTek plate reader (excitation 485 nm, emission 528 nm). All data were processed using IDBS ActivityBase. Raw data were converted into percent inhibition through linear regression by setting the high inhibition control (mefloquine) as 100% and the no inhibition control (DMSO) as 0%. Quality control criteria for passing plates were as follows: Z′>0.5, S:B>3, % CV(no inhibition control)<15. The formula used to calculate Z′ is:
[formula] where μ denotes the mean; σ denotes the standard deviation; p denotes the positive control; and n denotes the negative control.
All EC50 curve fitting was undertaken using the following bi-phasic two site dose response using XLfit model 300 (IDBS):
[formula] where A=100 minus the top of the upper curve 1 and the bottom of lower curve; B=Hill slope; log(C)=IC50 concentration at lower site; log(D)=IC50 concentration at upper site; x=inhibitor concentration; and y=% inhibition.

Row | pIC50 | Structure (SMILES)
1 | 6.43 | C[C@@]1(c2cccc(Nc3cccnc3C#N)c2Cl)CC(=O)N(C2CCOCC2)C(=N)N1 [Example 51, 3-{2-Chloro-3-[(4S)-2-imino-4-methyl-6-oxo-1-(tetrahydro-pyran-4-yl)hexahydropyrimidin-4-yl]anilino}pyridine-2-carbo-nitrile]
2 | 6.17 | C[C@@]1(c2cccc(Nc3cnc(C(F)(F)F)nc3)c2Cl)CC(=O)N(C2CCOCC2)C(=N)N1 [Example 52, (6S)-6-(2-Chloro-3-{[2-(trifluoromethyl)pyrimidin-5-yl]amino}phenyl)-2-imino-6-methyl-3-(tetrahydropyran-4-yl)hexahydropyrimidin-4-one]
3 | 6.67 | C[C@@]1(c2cccc(Nc3ccccc3OC(F)(F)F)c2Cl)CC(=O)N(C2CCOCC2)C(=N)N1 [Example 53, (6S)-6-{2-Chloro-3-[2-(trifluoromethoxy)anilino]-phenyl}-2-imino-6-methyl-3-(tetrahydropyran-4-yl)-hexahydropyrimidin-4-one]
4 | 6.18 | COc1ccncc1Nc1cccc([C@]2(C)CC(=O)N(C3CCOCC3)C(=N)N2)c1Cl [Example 54, (6S)-6-{2-Chloro-3-[(4-methoxypyridin-3-yl)amino]-phenyl}-2-imino-6-methyl-3-(tetrahydropyran-4-yl)-hexahydropyrimidin-4-one]
5 | 6.36 | COc1nc(C)ccc1Nc1cccc([C@]2(C)CC(=O)N(C3CCOCC3)C(=N)N2)c1Cl [Example 55, (6S)-6-{2-Chloro-3-[(2-methoxy-6-methylpyridin-3-yl)-amino]phenyl}-2-imino-6-methyl-3-(tetrahydropyran-4-yl)hexahydropyrimidin-4-one]
6 | 6.60 | C[C@@]1(c2cccc(Nc3cnccc3C(F)(F)F)c2Cl)CC(=O)N(C2CCOCC2)C(=N)N1 [Example 56, (6S)-6-(2-Chloro-3-{[4-(trifluoromethyl)pyridin-3-yl]-amino}phenyl)-2-imino-6-methyl-3-(tetrahydropyran-4-yl)hexahydropyrimidin-4-one]
7 | 6.22 | C[C@@]1(c2cccc(Nc3cccc4ccccc34)c2Cl)CC(=O)N(C2CCOCC2)C(=N)N1 [Example 57, (6S)-6-[2-Chloro-3-(1-naphthyl-amino)phenyl]-2-imino-6-methyl-3-(tetrahydropyran-4-yl)hexahydropyrimidin-4-one]
8 | 5.79 | C[C@@]1(c2cccc(Nc3cccc(-c4ccccc4)c3)c2Cl)CC(=O)N(C2CCOCC2)C(=N)N1 [Example 58, (6S)-6-[2-Chloro-3-(3-phenyl-anilino)phenyl]-2-imino-6-methyl-3-(tetrahydropyran-4-yl)hexahydropyrimidin-4-one]
9 | 6.44 | C[C@@]1(c2cccc(Nc3ccc4c(c3)OCO4)c2Cl)CC(=O)N(C2CCOCC2)C(=N)N1 [Example 59, (6S)-6-[3-(1,3-Benzodioxol-5-ylamino)-2-chlorophenyl]-2-imino-6-methyl-3-(tetrahydro-pyran-4-yl)hexahydropyrimidin-4-one]
10 | 6.57 | C[C@@]1(c2cccc(Nc3ccc(Cl)nc3)c2Cl)CC(=O)N(C2CCOCC2)C(=N)N1 [Example 60, (6S)-6-{2-Chloro-3-[(6-chloro-pyridin-3-yl)amino]phenyl}-2-imino-6-methyl-3-(tetrahydro-pyran-4-yl)hexahydropyrimidin-4-one]
11 | 6.12 | C[C@@]1(c2cccc(Nc3cccc(-c4ccno4)c3)c2Cl)CC(=O)N(C2CCOCC2)C(=N)N1 [Example 61, (6S)-6-{2-Chloro-3-[3-(isoxazol-5-yl)anilino]phenyl}-2-imino-6-methyl-3-(tetrahydro-pyran-4-yl)hexahydropyrimidin-4-one]
12 | 6.65 | CC(C)(C)c1ncc(Nc2cccc([C@]3(C)CC(=O)N(C4CCOCC4)C(=N)N3)c2Cl)cn1 [Example 62, (6S)-6-{3-[(2-tert-Butyl-pyrimidin-5-yl)amino]-2-chloro-phenyl}-2-imino-6-methyl-3-(tetrahydropyran-4-yl)-hexahydropyrimidin-4-one]
13 | 6.04 | C[C@@]1(c2cccc(Nc3cccc(OC(F)F)c3)c2Cl)CC(=O)N(C2CCOCC2)C(=N)N1 [Example 63, (6S)-6-{2-Chloro-3-[3-(difluoro-methoxy)anilino]phenyl}-2-imino-6-methyl-3-(tetrahydro-pyran-4-yl)hexahydropyrimidin-4-one]
14 | 5.75 | C[C@@]1(c2cccc(Nc3ccc(OC(F)(F)F)cc3)c2Cl)CC(=O)N(C2CCOCC2)C(=N)N1 [Example 64, (6S)-6-{2-Chloro-3-[4-(trifluoromethoxy)anilino]-phenyl}-2-imino-6-methyl-3-(tetrahydropyran-4-yl)-hexahydropyrimidin-4-one]
15 | 6.34 | CC(=O)N1CCc2cc(Nc3cccc([C@]4(C)CC(=O)N(C5CCOCC5)C(=N)N4)c3Cl)ccc21 [Example 65, (6S)-6-{3-[(1-Acetylindolin-5-yl)amino]-2-chlorophenyl}-2-imino-6-methyl-3-(tetrahydro-pyran-4-yl)hexahydropyrimidin-4-one]
16 | 6.66 | C[C@@]1(c2cccc(Nc3ccccc3OC(F)F)c2Cl)CC(=O)N(C2CCOCC2)C(=N)N1 [Example 66, (6S)-6-{2-Chloro-3-[2-(difluoro-methoxy)anilino]phenyl}-2-imino-6-methyl-3-(tetrahydro-pyran-4-yl)hexahydropyrimidin-4-one]
17 | 5.59 | CC(C)(C)c1ccc(Nc2cccc([C@]3(C)CC(=O)N(C4CCOCC4)C(=N)N3)c2Cl)cc1 [Example 67, (6S)-6-[3-(4-tert-Butylanilino)-2-chlorophenyl]-2-imino-6-methyl-3-(tetrahydropyran-4-yl)hexahydropyrimidin-4-one]
18 | 6.28 | C[C@@]1(c2cccc(Nc3cccc4c3OC(F)(F)O4)c2Cl)CC(=O)N(C2CCOCC2)C(=N)N1 [Example 68, (6S)-6-{2-Chloro-3-[(2,2-difluoro-1,3-benzodioxol-4-yl)amino]phenyl}-2-imino-6-methyl-3-tetrahydropyran-4-yl-hexahydropyrimidin-4-one]
19 | 6.24 | Cc1cccc(C)c1Nc1cccc([C@]2(C)CC(=O)N(C3CCOCC3)C(=N)N2)c1Cl [Example 69, (6S)-6-[2-Chloro-3-(2,6-dimethylanilino)phenyl]-2-imino-6-methyl-3-(tetrahydro-pyran-4-yl)hexahydropyrimidin-4-one]
20 | 6.32 | C[C@@]1(c2cccc(Nc3cc(F)c4ccnn4c3)c2Cl)CC(=O)N(C2CCOCC2)C(=N)N1 [Example 70, (6S)-6-{2-Chloro-3-[(4-fluoro-pyrazolo[1,5-a]pyridin-6-yl)-amino]phenyl}-2-imino-6-methyl-3-(tetrahydropyran-4-yl)hexahydropyrimidin-4-one]
21 | 5.45 | C[C@@]1(c2cccc(Nc3ccc(-c4ccccc4)cc3)c2Cl)CC(=O)N(C2CCOCC2)C(=N)N1 [Example 71, (6S)-6-[2-Chloro-3-(4-phenyl-anilino)phenyl]-2-imino-6-methyl-3-(tetrahydropyran-4-yl)hexahydropyrimidin-4-one]
22 | 6.49 | CN(C)c1ccc(Nc2cccc([C@]3(C)CC(=O)N(C4CCOCC4)C(=N)N3)c2Cl)cn1 [Example 72, (6S)-6-(2-Chloro-3-{[6-(dimethylamino)pyridin-3-yl]-amino}phenyl)-2-imino-6-methyl-3-(tetrahydropyran-4-yl)hexahydropyrimidin-4-one]
23 | 4.98 | Cn1ccc(Nc2cccc([C@]3(C)CC(=O)N(C4CCOCC4)C(=N)N3)c2Cl)cc1=O [Example 73, (6S)-6-{2-Chloro-3-[(1-methyl-2-oxopyridin-4-yl)amino]-phenyl}-2-imino-6-methyl-3-(tetrahydropyran-4-yl)-hexahydropyrimidin-4-one]
24 | 5.89 | CC(C)Oc1cccc(Nc2cccc([C@]3(C)CC(=O)N(C4CCOCC4)C(=N)N3)c2Cl)c1 [Example 74, (6S)-6-[2-Chloro-3-(3-isopropoxyanilino)phenyl]-2-imino-6-methyl-3-(tetrahydro-pyran-4-yl)hexahydropyrimidin-4-one]
